Assay results: patent US6664224B2, “Quaternary ammonium salt and process for the preparation thereof” (priority 2000, dated 2003)
Like-named read-outs stand apart in the source and are kept apart here.

What was measured:
Bacillus cereus IFO 3001 = experiment: Minimum bactericidal concentration (MBC) against bacteria; format: cell-based; details: culture 37° C. 24 hours
Experimental: (§1) A bacteria solution in the initial stage of logarithmic productive phase which had been adjusted with a nutrient broth according to an ordinary sterilized water dilution method such that the concentration of bacterial suspension reached 10^6 cell/ml was brought into contact with chemical solutions having concentrations which vary stepwise at a temperature of 30° C. for 30 minutes, and then transplanted to a nutrient broth where it was then allowed to stand at a temperature of 37° C. for 24 hours for culture. The nutrient broth was then examined to see if the proliferation of bacteria occurred. Thus, MBC was determined.
(§2) Five kinds of gram-negative bacteria and four kinds of gram-positive bacteria were used as sample bacteria.
(§3) BAMP-6 (Example 12), BAMD-6,8 (Example 13), BAMT-6 (Example 17) and benzalkonium chloride (Comparative Example 1) were determined for MBC value against 5 kinds of gram-negative bacteria and 4 kinds of gram-positive bacteria in the same manner as in Test Example 1.

[1] = system: Bacillus subtilis IFO 3134; experiment: as above; format: cell-based; details: culture 37° C. 24 hours
Experimental: as §1, §2, §3

[2] = system: Escherichia coli K12 OUT 8401; experiment: as above; format: cell-based; details: culture 37° C. 24 hours
Experimental: as §1, §2, §3

[3] = system: Escherichia coli K12 W 3110; experiment: as above; format: cell-based; details: culture 37° C. 24 hours
Experimental: as §1, §2, §3

[4] = system: Klebsiella pneumoniae ATCC 13883; experiment: as above; format: cell-based; details: culture 37° C. 24 hours
Experimental: as §1, §2, §3

Proteus rettgeri NIT 96 = experiment: as above; format: cell-based; details: culture 37° C. 24 hours
Experimental: as §1, §2, §3

[5] = system: Pseudomonas aeruginosa ATCC 27583; experiment: as above; format: cell-based; details: culture 37° C. 24 hours
Experimental: as §1, §2, §3

[6] = system: Staphylococcus aureus IFO 12732; experiment: as above; format: cell-based; details: culture 37° C. 24 hours
Experimental: as §1, §2, §3

[7] = system: Bacillus substilis ATCC 6633; experiment: as above; format: cell-based, Bacillus subtilis; details: culture 37° C. 24 hours
Experimental: as §1, §2, §3

[8] = system: Escherichia coli K12 W 3110; experiment: Minimum development inhibiting concentration (MIC) against bacteria, broth dilution method; format: cell-based; details: for MIC Escherichia coli K12 W 3110: 37° C. 24 hours
Experimental: A bacteria solution in stationary state which had been adjusted with a nutrient broth according to an ordinary broth dilution method such that the concentration of bacterial suspension reached 10^6 cell/ml was added to chemical solutions having concentrations which vary stepwise where it was then allowed to stand at a temperature of 37° C. for 24 hours for culture. The bacteria solution was then examined to see if the proliferation of bacteria occurred. Thus, MIC was determined.
Escherichia coli K12 W 3110 was used as a sample bacterium. Compounds obtained in Examples 1 to 9 and benzalkonium chloride prepared in Comparative Example 1 were used as test samples.
The compounds obtained in Examples 10 to 19 and benzalkonium chloride were determined for MIC value against Escherichia coli K12 W 3110 in the same manner as in Test Example 3.

Erythrocyte = experiment: Minimum hemolytic activity concentration against erythrocyte; format: cell-based; details: human erythrocyte, 37° C. 1 hour, O.D.540, 50% hemolysis
Experimental: Human blood was collected. The sample blood was then mixed with the equal amount of alsebar solution (glucose: 2.05 g; NaCl: 0.42 g; sodium citrate: 0.8 g; citric acid: 0.55 g; pH: 6.1). The mixture was then stored at a temperature of 4° C. Shortly before used for experiment, the alsebar stored blood was subjected to centrifugal separation. Thus, the supernatant liquid and the leukocyte layer on the erythrocyte were removed. To the erythrocyte was then added PBS in an amount of […] that of the erythrocyte to obtain a 50% erythrocyte. 10 μl of the 50% erythrocyte was then mixed with 990 μl of each of chemicals which had been diluted with PBS in amounts varying stepwise. The erythrocyte was acted upon by the chemical at a temperature of 37° C. for 1 hour. The mixture was then subjected to centrifugal separation. The supernatant liquid was collected for the measurement of the optical density at 540 nm (O.D.540). Separately, the foregoing procedure was followed except that no chemicals were used to prepare a 0% hemolytic control. The foregoing procedure was followed except that Milliq water was used instead of PBS to prepare a 100% hemolytic control. For the minimum hemolytic activity concentration of chemical, the minimum concentration at which the hemolytic concentration is […] was determined.

rat = experiment: Oral toxicity test on rat (LD50); format: in vivo
Experimental: The quaternary ammonium salt of the invention is a compound having an extremely high safety, i.e., LD50 (rat) of not smaller than 2,000 mg/kg in oral toxicity test on rat.
The sample 4BAMP-6C thus obtained was then determined for oral toxicity (LD50: rat). The results were greater than 2,000 mg/kg.

[9] = system: Escherichia coli K12 W 3110; experiment: MIC by agar plate dilution method; format: cell-based; details: E. coli, 37° C. 24 hours
Experimental: (§4) MIC value was determined by an agar plate dilution method according to the Law of Japanese Society of Chemotherapy. In some detail, a bacteria solution in stationary state which had been adjusted with a nutrient broth such that the concentration of bacterial suspension reached 10^6 cell/ml was added to agar culture media containing chemical solutions having concentrations which vary in two stages where it was then allowed to stand at a temperature of 37° C. for 24 hours for culture. The bacteria solution was then examined to see if the proliferation of bacteria occurred. Thus, MIC was determined.
(§5) The following three kinds of bacteria were used as sample bacteria:
Escherichia coliK12 W 3110 (E. coli);

[10] = system: Pseudomonas aeruginosa ATCC27583; experiment: MIC by agar plate dilution method; format: cell-based; details: P. aeruginosa, 37° C. 24 hours
Experimental: as §4, §5
Pseudomonas aeruginosa ATCC27583 (P. auruginosa); and […]

[11] = system: Staphylococcus aureus IFO 12732; experiment: MIC by agar plate dilution method; format: cell-based; details: S. aureus, 37° C. 24 hours
Experimental: as §4, §5
Staphylococcus aureus IFO 12732 (S. aureus)

[12] = system: Aspergillus niger IFO 6431; experiment: Minimum development inhibiting concentration (MIC) against fungi; format: cell-based; details: A. niger; spore solution, 27° C. 1 week
Experimental: (§6) A sample fungus which had been pre-cultured was diluted with a wetting agent-containing sterilized water according to an ordinary broth dilution method to prepare a spore solution. 1 ml of the spore solution was then mixed with 1 ml of each of chemical solutions having concentrations which vary stepwise. The mixture was then cultured at a temperature of 27° C. in an incubator for 1 week. The culture was then examined for turbidity to see if the proliferation of fungus occurred. The minimum concentration at which no turbidity occurs was defined to be MIC.
(§7) Aspergillus niger IFO 6431 (A. niger) and Candida albicans ATCC10231 (C. albicans) were used as sample microorganisms.

[13] = system: Candida albicans ATCC10231; experiment: as above; format: cell-based; details: C. albicans; spore solution, 27° C. 1 week
Experimental: as §6, §7

## 1,4-bis(N-octyl-N-hexyl-N-methylammoniomethyl)-2,3,5,6-tetramethylphenylene dichloride [BAMD-6, 8]
Bacillus cereus IFO 3001; contact 30° C. 30 minutes
  MBC: <2 ppm
[1]; contact 30° C. 30 minutes
  MBC: <2 ppm
[2]; contact 30° C. 30 minutes
  MBC: <2 ppm
[3]; contact 30° C. 30 minutes
  MBC: <2 ppm
[4]; contact 30° C. 30 minutes
  MBC: <2 ppm
Proteus rettgeri NIT 96; contact 30° C. 30 minutes
  MBC: <2 ppm
[5]; contact 30° C. 30 minutes
  MBC: <2 ppm
[6]; contact 30° C. 30 minutes
  MBC: <2 ppm
[7]; contact 30° C. 30 minutes
  MBC: <2 ppm
[8]
  MIC Escherichia coli K12 W 3110: 1 ppm

## CCCCCC[N+](C)(CCCCCC)Cc1c(C)cc(C)c(C[N+](C)(CCCCCC)CCCCCC)c1C.[Cl-].[Cl-] [BAMT-6, 2,4-bis(N,N-dihexyl-N-methylammoniomethyl)-1,3,5-trimethylbenzene dichloride]
Bacillus cereus IFO 3001; IFO3001, contact 30° C. 30 minutes, read-out: MBC
  MBC: < 2 µg/mL
[1]; IFO3134, contact 30° C. 30 minutes, read-out: MBC
  MBC: < 2 µg/mL
[2]; K12OUT8401, contact 30° C. 30 minutes, read-out: MBC
  MBC: < 2 µg/mL
[3]; K12W3110, contact 30° C. 30 minutes, read-out: MBC
  MBC: 4 µg/mL
[4]; ATCC13883, contact 30° C. 30 minutes, read-out: MBC
  MBC: < 2 µg/mL
Proteus rettgeri NIT 96; Providencia rettgeri, NIT96, contact 30° C. 30 minutes, read-out: MBC
  MBC: < 2 µg/mL
[5]; ATCC27583, contact 30° C. 30 minutes, read-out: MBC
  MBC: 4 µg/mL
[6]; IFO12732, contact 30° C. 30 minutes, read-out: MBC
  MBC: < 2 µg/mL
[7]; ATCC6633, contact 30° C. 30 minutes, read-out: MBC
  MBC: < 2 µg/mL
[8]; Escherichia coli, K12W3110, 37° C. 24 hours
  MIC: 1 µg/mL
Erythrocyte
  Minimum hemolytic activity concentration Erythrocyte: 400 ppm

## 1,4-bis(N,N-dihexyl-N-methylammoniomethyl)phenylene di-p-toluenesulfonate [Example 4BAMP-6S]
Bacillus cereus IFO 3001; contact 30° C. 30 minutes
  MBC: 4 ppm
[1]; contact 30° C. 30 minutes
  MBC: <2 ppm
[2]; contact 30° C. 30 minutes
  MBC: 4 ppm
[3]; contact 30° C. 30 minutes
  MBC: 8 ppm
[4]; contact 30° C. 30 minutes
  MBC: <2 ppm
Proteus rettgeri NIT 96; contact 30° C. 30 minutes
  MBC: <2 ppm
[5]; contact 30° C. 30 minutes
  MBC: 8 ppm
[6]; contact 30° C. 30 minutes
  MBC: <2 ppm
[7]; contact 30° C. 30 minutes
  MBC: <2 ppm
[8]
  MIC Escherichia coli K12 W 3110: 2 ppm
rat
  oral toxicity LD50: greater than 2,000 mg/kg

## 1,4-bis(N-octyl-N-hexyl-N-methylammoniomethyl)phenylene dibromide [4BAMP-6, 8B]
[9]
  MIC: 8 ppm
[10]
  MIC: <2 ppm
[11]
  MIC: <2 ppm
[12]
  MIC: 8 ppm
[13]
  MIC: <2 ppm

## 1,4-bis(N,N-dipentyl-N-methylammoniomethyl)phenylene dichloride [Example 4BAMP-5C]
[9]
  MIC: 16 ppm
[10]
  MIC: 4 ppm
[11]
  MIC: <2 ppm
[12]
  MIC: 16 ppm
[13]
  MIC: 8 ppm
Erythrocyte
  Minimum hemolytic activity concentration Erythrocyte: 1,600 ppm

## 1,4-bis(N,N-dihexyl-N-methylammoniomethyl)-2,3,5,6-tetramethylphenylene dichloride [BAMD-6]
Bacillus cereus IFO 3001; contact 30° C. 30 minutes
  MBC: <2 ppm
[1]; contact 30° C. 30 minutes
  MBC: <2 ppm
[2]; contact 30° C. 30 minutes
  MBC: <2 ppm
[3]; contact 30° C. 30 minutes
  MBC: 4 ppm
[4]; contact 30° C. 30 minutes
  MBC: <2 ppm
Proteus rettgeri NIT 96; contact 30° C. 30 minutes
  MBC: <2 ppm
[5]; contact 30° C. 30 minutes
  MBC: 4 ppm
[6]; contact 30° C. 30 minutes
  MBC: <2 ppm
[7]; contact 30° C. 30 minutes
  MBC: <2 ppm
[8]
  MIC Escherichia coli K12 W 3110: 1 ppm
Erythrocyte
  Minimum hemolytic activity concentration Erythrocyte: 400 ppm
rat
  oral toxicity LD50: greater than 2,000 mg/kg
